# Source: article PMC11796312, “Multifunctional, Fluorene‐Based Modulator of Cholinergic and GABAergic Neurotransmission as a Novel Drug Candidate for Palliative Treatment of Alzheimer's Disease” (Angewandte Chemie (International Ed. in English), 2024)
# Entries after “also recorded” stand apart in the source; their conditions may differ. Read-outs that look alike come from different tables or passages of the source.
# Assays:
# [1] = test system: BuChE; conditions: 1 or 5 µM compound (printed '1 or 5 M'), vs DMSO
# [2] = target: T1, human norepinephrine transporter (Homo sapiens, UniProt P23975); experiment: Norepinephrine Transporter Competition Binding Assay; conditions: NET Ki
# T1 construct: expressed in transfected cells
# Experimental: Norepinephrine Transporter Competition Binding Assay
# Preparation of solutions of test and reference compounds
# First, 10 mM stock solutions of tested compounds were prepared in DMSO. Serial dilutions of compounds were prepared in a 96-well microplate in an assay buffer using the automated pipetting system epMotion 5070. Each compound was tested in 8 concentrations ranging from 10^-3 to 10^-10 M (final concentration).
# Radioligand binding was performed using membranes from the MDCK cell line stably transfected with the human norepinephrine transporter. All assays were carried out in duplicates. Volumes of 50 µl working solution of the tested compounds, 50 µl [ 3H]- Nisoxetine (spec. act. 80.2 Ci/mmol, final concentration 4 nM), and 150 µl diluted membranes (5 µg protein per well) prepared in assay buffer (50 mM Tris -HCl, pH 7.4; 120 mM NaCl; 5 mM KCl) were transferred to polypropylene 96-well microplate using 96-wells pipetting station Rainin Liquidator. Desipramine (10 μM) was used to define nonspecific binding. The microplate was covered with sealing tape, mixed, and incubated for 60 minutes at 4 °C. The reaction was terminated by rapid filtration through GF/B filter mate presoaked with 0.5% polyethyleneimine for 30 minutes. Five rapid washes with 300 µl 50 mM Tris buffer (4 °C, pH 7.4) were performed using a 96 -well FilterMate harvester. The filter mates were dried at 37 °C in the forced air fan incubator, and then, solid scintillator MeltiLex B/HS was melted on filter mates at 90 °C for 4 minutes. Radioactivity was counted in the MicroBeta2 scintillation counter (PerkinElmer). Data were fitted to a one -site curve-fitting equation with Prism 8.0 (GraphPad Software), and Ki values were estimated from the […]
# Result of Norepinephrine Transporter Competition Binding Assay
# Table S9. Results of binding to norepinephrine transporter (NET) of tested compounds COMPOUND Ki [nM] pKi Ki [nM] pKi Ki [nM] pKi
# [3] = Pharmacokinetic study after i.g. administration; format: in vivo; conditions: mice
# Experimental: Pharmacokinetic study after i.p. and i.g administration
# mg/kg), blood samples were collected from mice under deep terminal anesthesia directly by cardiac puncture into heparinized 1.5 mL tubes at selected time intervals.
# The samples were centrifuged at 3,000 × g for 10 min (10 °C), and the plasma samples were stored at -80 °C until the HPLC analysis.
# The blood in brain vessels would interfere with the assay of actual brain tissue concentrations.
# Therefore, the animals were perfused transcardially with saline solution (0.9% NaCl) for 5 min (10 mL/min). After perfusion, the skull was opened, and the brain was carefully removed and immediately stored at -80 °C until the HPLC analysis.
# Before analysis, 50 μL of plasma or brain homogenate was precipitated with an internal
# standard of 200 μL acetonitrile (ACN). The mixture was vortexed for 1 min at 1,500 rpm and
# centrifuged at 12,074 g for 5 min at 20 °C. The supernatant was then transferred to an
# injection vial and analyzed.
# mm ID (Phenomenex, Torrance, CA, USA), protected with a guard column SecurityGuard
# was performed in gradient elution mode with a flow rate of 0.6 mL/min and the following
# composition of mobile phase: A) 0.1% FA in water (v/v) and B) 0.1% FA in ACN/MeOH in
# The column was kept at 45 °C during
# analysis. Samples were held at 10 °C in a light-tight autosampler unit.
# Heated-Electrospray Ionization II interface (HESI-II) in positive ion mode was used with the
# following settings: spray voltage; +3.5 kV, S-lens RF level; +70 V, capillary temperature 350
# °C, auxiliary gas heater temperature; 350 °C, sheet, and auxiliary gas flow; 45 and 15
# arbitrary units, respectively. Full MS mode was used at resolution (m/𝛥m) ̴70,000 for
# Xcalibur software (v 4.0) was used for data evaluation.
# [4] = Stability in plasma (UHPLC-MS method validation); format: in vitro ADME; conditions: rat plasma
# From the text: UHPLC-MS method for pharmacokinetics study
# Ultra high-performance liquid chromatography system consisting of Ultimate 3000 RS pump Dionex (Thermo Scientific, San Jose, CA, USA) coupled with high-resolution mass spectrometer with orbitrap analyzer (Q Exactive Focus, Thermo Scientific, San Jose, CA, USA) was used in quantitative analyses of 6 in plasma and brain homogenate. According to the EMA[43] and FDA[42] guidelines on Bioanalytical method validation, the method was fully validated for plasma and partially for brain homogenate. All the evaluated parameters met the […]
# Table S12. Summary of validation results (precision and accuracy) in plasma for five different concentrations - limit of quantitation(LLOQ), low (QC A), mid (QC B), high (QC C) a dilution (QC D) level. […]
# Stability evaluation in rat plasma as deviation from the reference value (100%)
# [5] = test system: mice; experiment: Elevated plus maze (EPM); format: in vivo; conditions: vs control
# Experimental: Animals and housing conditions
# In all pharmacodynamic in vivo experiments, except for the Barnes maze (BM) task, adult male Albino Swiss (CD-1) mice weighing between 18 and 22 g and purchased from the Animal Breeding Farm of the Faculty of Pharmacy, Jagiellonian University Medical College were used. In BM task, C57BL/6J mice of the same weight (Animalab, Poland) were used.
# Animals were housed in cages (10 mice per cage) at a constant temperature of 22 ± 2 °C, humidity of 55 ± 10%, and a light/dark (12:12) cycle (lights on at 7 AM). Before the experiments, the animals had unlimited access to food and water. Specified conditions for the maintenance of mice were ensured throughout the experiments, including tree bedding (Transwior, Poland) and cage enrichment (tunnels, nesting material, wooden igloos, etc.). For the behavioral test, the mice were selected randomly; each group consisted of 7-12 mice. The experiments were performed between 9 AM and 3 PM. After in vivo tests, the animals were […]
# Ethical approval statement
# The procedures for the maintenance and treatment of laboratory animals were approved by the 1st Local Ethics Committee of the Jagiellonian University in Krakow (Approvals No. […]
# of the closed arms. […] The following parameters were measured in this test: time spent in open arms of the EPM device and the number of entries to open arms. […]
# T1 sequence (P23975 whole entry): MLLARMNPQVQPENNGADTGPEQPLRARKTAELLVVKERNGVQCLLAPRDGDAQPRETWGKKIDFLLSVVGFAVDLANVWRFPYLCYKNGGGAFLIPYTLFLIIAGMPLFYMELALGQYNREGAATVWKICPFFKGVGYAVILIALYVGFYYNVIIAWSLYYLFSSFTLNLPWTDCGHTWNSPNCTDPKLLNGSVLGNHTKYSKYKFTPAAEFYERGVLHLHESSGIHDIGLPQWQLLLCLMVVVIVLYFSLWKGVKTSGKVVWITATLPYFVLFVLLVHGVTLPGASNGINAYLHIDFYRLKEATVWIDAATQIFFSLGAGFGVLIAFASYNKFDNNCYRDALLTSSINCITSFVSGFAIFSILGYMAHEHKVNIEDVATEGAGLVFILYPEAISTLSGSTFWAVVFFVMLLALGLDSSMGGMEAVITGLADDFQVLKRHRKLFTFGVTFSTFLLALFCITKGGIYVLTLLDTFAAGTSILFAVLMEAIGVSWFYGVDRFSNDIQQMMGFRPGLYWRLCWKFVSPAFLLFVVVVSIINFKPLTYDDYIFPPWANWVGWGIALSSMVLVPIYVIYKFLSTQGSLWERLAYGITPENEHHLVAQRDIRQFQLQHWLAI
smiles,measurement,setting,value
O[C@H](CNCC1CC1)[C@H](Cc1ccccc1)NC1c2ccccc2-c2ccccc21 [Compound 6],Melting temperature (Tm) of BuChE,[1],increased Tm of BuChE
same,Ki,[2],837 nM
same,Ki,[2]; third Ki column (likely the mean),774 nM
same,Ki,[2]; [3H]-Nisoxetine,714 nM
same,Kp,"[3]; ICR-CD1, mouse, brain and plasma, po, 10 mg/kg, 10 mg/kg i.g., read-out: Kp (AUCbrain/AUCplasma), brain-to-plasma ratio",1.98
same,Tmax,"[3]; ICR-CD1, mouse, brain, po, 10 mg/kg, 10 mg/kg i.g., read-out: brain Tmax (converted)",3.33 h
same,Cmax,"[3]; ICR-CD1, mouse, plasma, po, 10 mg/kg, 10 mg/kg i.g.",120 ± 30.7 ng/mL
same,half-life,"[3]; ICR-CD1, mouse, plasma, po, 10 mg/kg, 10 mg/kg i.g., plasma, read-out: Half-life",3.54 ± 0.449 h
same,Vd/F,"[3]; ICR-CD1, mouse, plasma, po, 10 mg/kg, 10 mg/kg i.g., plasma, read-out: Vss/F",120 ± 22.1 L/kg
same,Vd/F,"[3]; ICR-CD1, mouse, plasma, po, 10 mg/kg, 10 mg/kg i.g., plasma, read-out: Vz/F",102 ± 22.9 L/kg
same,Tmax,"[3]; ICR-CD1, mouse, plasma, po, 10 mg/kg, 10 mg/kg i.g., read-out: plasma Tmax (converted)",1.33 h
same,MRT,"[3]; ICR-CD1, mouse, po, 10 mg/kg i.g., plasma",6.08 h
same,k el,"[3]; ICR-CD1, mouse, po, 10 mg/kg i.g., plasma, read-out: λz (converted)",6e-05 s⁻¹
same,plasma AUCtotal i.g. as % of AUCtotal after i.p. administration of the same dose,[3]; 10 mg/kg,approximately 60%
same,brain AUCtotal,[3]; 10 mg/kg i.g.,"68,547.70 ± 9,216.46 min.ng/g"
same,brain Cmax,[3]; 10 mg/kg i.g.,158.63 ± 20.04 ng/g
same,plasma AUCtotal,[3]; 10 mg/kg i.g.,"34,630.80 ± 4,866.51 min.ng/mL"
same,CL,"[3]; 10 mg/kg i.g., plasma",320 ± 50 mL/min/kg
same,half-life,"[3]; 10 mg/kg i.g., plasma, 10 mg/kg",3.53 h
same,plasma Cmax,"[3]; 10 mg/kg i.g., 10 mg/kg",120 ng/mL
same,Autosampler stability % (24h),"[4]; QC B (33,50 ng/mL), vs reference value 100%","97,6 ± 1,5%"
same,Freeze-thaw stability % (3 cycles),[4]; QC B,"95,8% ± 4,0"
same,Long-term stability % (3 month),[4]; QC B,"109,9 ± 0,5%"
same,Autosampler stability % (24h),"[4]; QC C (452,73 ng/mL)","94,6 ± 2,5%"
same,Freeze-thaw stability % (3 cycles),[4]; QC C,"102,0 ± 4,7%"
same,Long-term stability % (3 month),[4]; QC C,"105,7 ± 2,2%"
same,time spent in open arms,[5]; 0.1 and 1 mg/kg i.p.,prolonged time spent in open arms; also recorded: significant prolongation of time spent in the open arms
same,number of open arm entries,[5]; 1 and 10 mg/kg i.p.,increased the number of open arm entries; also recorded: increased number of entries into the open arms
